The first series has as its system RAW264.7. As to the kind of experiment: Antiinflammatory activity in mouse RAW264.7 cells assessed as inhibition of LPS-induced NO production at 10 uM after 18 hrs by Griess assay relative to control. It is filed as functional. The following applies: RAW264.7, 18 h. A general note: The Griess reaction detects nitrite, a stable product of nitric oxide.
`COc1ccc(C(=O)c2cc3cc(O)c(O)cc3o2)cc1`: the inhibition (in general, the share of the control response that was lost under treatment) at 10 µM amounted to 96.8%.
With `COc1ccc(C(=O)c2cc3cc(OC)c(OC)cc3o2)cc1`, the inhibition at 10 µM came to 29.8%.
Still for that read-out and setting: the figure for `COc1cc2cc(C(=O)c3ccc(O)cc3)oc2cc1O` is 99.6%; for `CNC(=N)NCCC[C@H](N)C(=O)O` [TILARGININE] it is 92.4%; for `COc1cc2oc(C(=O)c3ccc(O)cc3)cc2cc1O` it is 99.3%.
Same read-out and setting: the figure for `COc1ccc(C(=O)c2cc3cc(O)c(OC)cc3o2)cc1` is 43%; for `COc1ccc(C(=O)c2cc3cc(OC)c(O)cc3o2)cc1` it is 29.7%; for `COc1cc2cc(C(=O)c3ccc(O)cc3)oc2cc1OC` it is 25.8%.
Still for that read-out and setting: under `O=C(c1ccc(O)cc1)c1cc2cc(O)c(O)cc2o1` stands 74.3%.

A further series relates to RAW264.7. The series is described as follows: Antiinflammatory activity in mouse RAW264.7 cells assessed as inhibition of LPS-induced NO production after 18 hrs by Griess assay. It counts as functional, cell-based. The following applies: RAW264.7, 18 h.
Consider `COc1ccc(C(=O)c2cc3cc(O)c(O)cc3o2)cc1`, for which the IC50 (commonly the concentration at which inhibition is half-maximal) was 1.9 µM.
Same read-out and setting: the figure for `COc1ccc(C(=O)c2cc3cc(OC)c(OC)cc3o2)cc1` is 11.8 µM.
Turning to `COc1cc2cc(C(=O)c3ccc(O)cc3)oc2cc1O`, the IC50 came to 0.57 µM.
The same measure, in the same setting: under `CNC(=N)NCCC[C@H](N)C(=O)O` [TILARGININE] stands 2.69 µM.
On the same count and under the same terms, under `COc1cc2oc(C(=O)c3ccc(O)cc3)cc2cc1O` stands 4.13 µM; under `COc1ccc(C(=O)c2cc3cc(O)c(OC)cc3o2)cc1`, 10.8 µM.
Regarding `COc1ccc(C(=O)c2cc3cc(OC)c(O)cc3o2)cc1`, the IC50 is 13.3 µM.
The same measure, in the same setting: the figure for `COc1cc2cc(C(=O)c3ccc(O)cc3)oc2cc1OC` is 10.4 µM; for `O=C(c1ccc(O)cc1)c1cc2cc(O)c(O)cc2o1` it is 0.99 µM.

Test system in the next series: not listed separately
The series is described as follows: Cytotoxicity against mouse RAW264.7 cells assessed as cell viability at 10 uM after 24 hrs by MTS assay relative to control. It counts as cell-based. The following applies: read-out: Activity. A general note: Formazan colour is commonly taken as a measure of viable cells.
With `COc1ccc(C(=O)c2cc3cc(O)c(O)cc3o2)cc1`, the viability at 24 h, 10 µM was found to be 101%.
Same read-out and setting: the figure for `COc1ccc(C(=O)c2cc3cc(OC)c(OC)cc3o2)cc1` is 98.6%; for `COc1cc2cc(C(=O)c3ccc(O)cc3)oc2cc1O` it is 95.9%.
The same measure, in the same setting: under `CNC(=N)NCCC[C@H](N)C(=O)O` [TILARGININE] stands 97.6%.
Same read-out and setting: under `COc1cc2oc(C(=O)c3ccc(O)cc3)cc2cc1O` stands 93.1%; under `COc1ccc(C(=O)c2cc3cc(O)c(OC)cc3o2)cc1`, 100%; under `COc1ccc(C(=O)c2cc3cc(OC)c(O)cc3o2)cc1`, 91.8%.
Regarding `COc1cc2cc(C(=O)c3ccc(O)cc3)oc2cc1OC`, the viability at 24 h, 10 µM was determined as 102%.
On the same count and under the same terms, the figure for `O=C(c1ccc(O)cc1)c1cc2cc(O)c(O)cc2o1` is 100%.

Another series concerns RAW264.7. The series is described as follows: Antiinflammatory activity in mouse RAW264.7 cells assessed as inhibition of LPS-induced NO production at 1 uM after 18 hrs by Griess assay relative to control. It counts as functional. The following applies: RAW264.7, 18 h.
In the case of `COc1ccc(C(=O)c2cc3cc(O)c(O)cc3o2)cc1`, the inhibition at 1 µM was 19.7%.
The same measure, in the same setting: the figure for `COc1ccc(C(=O)c2cc3cc(OC)c(OC)cc3o2)cc1` is 9.5%; for `COc1cc2cc(C(=O)c3ccc(O)cc3)oc2cc1O` it is 54.2%; for `CNC(=N)NCCC[C@H](N)C(=O)O` [TILARGININE] it is 20.9%.
Same read-out and setting: under `COc1cc2oc(C(=O)c3ccc(O)cc3)cc2cc1O` stands 0%; under `COc1ccc(C(=O)c2cc3cc(O)c(OC)cc3o2)cc1`, 16.2%.
Same read-out and setting: the figure for `COc1ccc(C(=O)c2cc3cc(OC)c(O)cc3o2)cc1` is 7.8%; for `COc1cc2cc(C(=O)c3ccc(O)cc3)oc2cc1OC` it is 8.6%; for `O=C(c1ccc(O)cc1)c1cc2cc(O)c(O)cc2o1` it is 42.9%.

Test system in another series: not listed separately
The series is described as follows: Cytotoxicity against mouse RAW264.7 cells assessed as cell viability at 1 uM after 24 hrs by MTS assay relative to control. It is filed as cell-based. The following applies: read-out: Activity.
As for `COc1ccc(C(=O)c2cc3cc(O)c(O)cc3o2)cc1`, the viability at 24 h, 1 µM amounted to 95.1%.
On the same count and under the same terms, under `COc1ccc(C(=O)c2cc3cc(OC)c(OC)cc3o2)cc1` stands 105%.
On the same count and under the same terms, the figure for `COc1cc2cc(C(=O)c3ccc(O)cc3)oc2cc1O` is 98.1%; for `CNC(=N)NCCC[C@H](N)C(=O)O` [TILARGININE] it is 98.6%.
Same read-out and setting: the figure for `COc1cc2oc(C(=O)c3ccc(O)cc3)cc2cc1O` is 97.9%.
On to `COc1ccc(C(=O)c2cc3cc(O)c(OC)cc3o2)cc1`, for which the viability at 24 h, 1 µM was determined as 98.1%.
On the same count and under the same terms, under `COc1ccc(C(=O)c2cc3cc(OC)c(O)cc3o2)cc1` stands 93.2%.
The same measure, in the same setting: the figure for `COc1cc2cc(C(=O)c3ccc(O)cc3)oc2cc1OC` is 106%.
Still for that read-out and setting: the figure for `O=C(c1ccc(O)cc1)c1cc2cc(O)c(O)cc2o1` is 106%.

The test system of a further series is RAW264.7. As to the kind of experiment: Inhibition of LPS-induced iNOS expression in mouse RAW264.7 cells at 10 uM after 18 hrs by Western blot method relative to LPS.
Conditions: not given
It counts as functional. On the technique in general: Immunoblotting shows a protein as a band on a membrane.
For `COc1ccc(C(=O)c2cc3cc(O)c(O)cc3o2)cc1`, the “fold change (FC)” value was found to be 0.19.
With `COc1ccc(C(=O)c2cc3cc(OC)c(OC)cc3o2)cc1`, the “fold change (FC)” value is listed as 0.65.
On the same count and under the same terms, under `COc1cc2cc(C(=O)c3ccc(O)cc3)oc2cc1O` stands 0.18; under `COc1cc2oc(C(=O)c3ccc(O)cc3)cc2cc1O`, 0.26; under `COc1ccc(C(=O)c2cc3cc(O)c(OC)cc3o2)cc1`, 0.52.
The same measure, in the same setting: the figure for `COc1ccc(C(=O)c2cc3cc(OC)c(O)cc3o2)cc1` is 0.77; for `COc1cc2cc(C(=O)c3ccc(O)cc3)oc2cc1OC` it is 0.46.
Same read-out and setting: the figure for `O=C(c1ccc(O)cc1)c1cc2cc(O)c(O)cc2o1` is 0.36.

The record behind these values is ChEMBL document CHEMBL3779776, “Synthesis and biological evaluation of 2-aroylbenzofurans, rugchalcones A, B and their derivatives as potent anti-inflammatory agents” (Bioorg Med Chem Lett, 2016).
